Test results: US20230098332A1, “HETEROCYCLIC DERIVATIVES AS TRMP8 ANTAGONISTS” (Givaudan SA, priority 2020, published 2023)
Counter-ions that a name gives are not always drawn.

Target: T1, hTRPM8 (Homo sapiens, UniProt Q7Z2W7)
T1 construct: expressed in transfected cells
Assay: Assay on TRPM8 modulators: calcium imaging (Fluo-4, Flexstation) in HEK293 cell line stably expressing hTRPM8
Format: cell-based
Conditions: TRPM8 agonist activity, calcium influx, HEK293 stably expressing hTRPM8, sigmoidal dose-response fit
Method: A HEK293 cell line stably expressing hTRPM8 was generated according to Klein et al., (Chem. Senses 36: 649-658, 2011) and receptor activation was monitored by calcium imaging in a Flexstation. For Ca-imaging assays of TRPM8 channel activation, cells were seeded on day 0 at a density of 12000 cells per well in Dulbecco's modified Eagle medium (DMEM) containing 9% foetal bovine serum in black, clear bottom 96-well plates that had been coated with 0.001% polyethyleneimine (molecular weight=60 000, Acros Organics). On day 2, agonists were evaluated via calcium imaging using Fluo-4. Briefly, growth medium was discarded, and the cells were incubated in the dark for 1 h at 37° C. in 50 μL loading buffer consisting of 2.7 μM Fluo-4 AM (Invitrogen) and […] probenecid (Sigma-Aldrich) in DMEM (without serum). After incubation, the plates were washed five times with 100 μL of assay buffer (in mM: 130 NaCl, 5 KCl, 10 HEPES, 2 CaCl2, and 10 glucose, pH7.4.) and further incubated in the dark at room temperature for 30 min. The cells were then washed five times with 100 μL assay buffer and then calcium influx to serial dilutions of inventive compounds were measured in a Flexstation 3 (Molecular Devices). Receptor activation was initiated following addition of 20 μl of a 10-fold concentrated ligand stock solution, which is also prepared in assay buffer. Fluorescence was continuously monitored for 15 seconds prior to ligand addition and for 105 seconds after ligand addition, for a total of 120 seconds. Maximal receptor activation in relation to solvent control and relative to 31.6 μM menthol is determined. Data from serial dilutions were processed with a KNIME workflow to fit a sigmoidal dose-response curve and to extrapolate EC50 values.

T1 sequence (Q7Z2W7 whole entry): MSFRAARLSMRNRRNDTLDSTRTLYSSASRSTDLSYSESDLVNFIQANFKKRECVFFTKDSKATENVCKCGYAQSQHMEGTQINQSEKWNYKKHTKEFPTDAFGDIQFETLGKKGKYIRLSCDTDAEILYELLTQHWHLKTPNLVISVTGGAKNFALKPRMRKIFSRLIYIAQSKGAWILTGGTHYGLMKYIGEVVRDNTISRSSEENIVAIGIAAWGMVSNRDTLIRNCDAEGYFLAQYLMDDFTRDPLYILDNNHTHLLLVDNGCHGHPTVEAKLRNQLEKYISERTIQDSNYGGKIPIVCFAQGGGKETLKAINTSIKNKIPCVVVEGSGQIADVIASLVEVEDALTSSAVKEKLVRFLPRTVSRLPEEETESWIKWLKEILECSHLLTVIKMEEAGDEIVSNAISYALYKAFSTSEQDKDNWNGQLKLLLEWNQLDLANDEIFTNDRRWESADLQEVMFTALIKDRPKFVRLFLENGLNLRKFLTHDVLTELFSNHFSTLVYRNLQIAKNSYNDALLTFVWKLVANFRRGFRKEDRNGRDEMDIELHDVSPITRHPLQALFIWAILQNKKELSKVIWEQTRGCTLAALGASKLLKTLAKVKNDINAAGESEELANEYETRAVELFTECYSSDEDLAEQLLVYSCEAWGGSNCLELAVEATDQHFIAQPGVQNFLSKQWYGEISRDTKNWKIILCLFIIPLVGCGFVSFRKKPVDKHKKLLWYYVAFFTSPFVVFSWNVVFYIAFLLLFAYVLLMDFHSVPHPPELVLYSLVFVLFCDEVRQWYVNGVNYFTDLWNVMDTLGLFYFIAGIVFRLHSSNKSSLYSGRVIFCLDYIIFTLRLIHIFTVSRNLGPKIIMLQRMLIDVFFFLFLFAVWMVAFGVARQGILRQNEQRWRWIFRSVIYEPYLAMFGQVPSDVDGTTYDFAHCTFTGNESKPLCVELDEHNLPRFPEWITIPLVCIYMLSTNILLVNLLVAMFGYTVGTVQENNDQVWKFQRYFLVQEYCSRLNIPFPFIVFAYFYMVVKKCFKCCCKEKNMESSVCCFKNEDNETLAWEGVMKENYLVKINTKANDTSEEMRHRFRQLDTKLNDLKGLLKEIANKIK

| SMILES | EC50 |
| --- | --- |
| Cc1cc(C)c(OCCN2CCN(C)CC2)c(Cc2ccncc2)c1 [compound 65, 1-(2-(2,4-dimethyl-6-(pyridin-4-ylmethyl)phenoxy)ethyl)-4-methylpiperazine] | 1 to 35 µM |
| Cc1ccc(OCCN2CCN(C)CC2)c(C(C)c2ccccc2)c1 (centres unmarked) [compound 101, 1-methyl-4-(2-(4-methyl-2-(1-phenylethyl)phenoxy)ethyl)piperazine] | 0.3 to 1 µM |
| Cc1ccc(OCCN2CCN(C)CC2)c(Cc2ccccc2C#N)c1 [compound 129, 2-(5-methyl-2-(2-(4-methylpiperazin-1-yl)ethoxy)benzyl)benzonitrile] | 0.05 to 0.3 µM |
| Cc1cc(C)c(OCCN2CCN(C)CC2)c(Cc2ccccc2I)c1 [compound 57, 1-(2-(2-(2-iodobenzyl)-4,6-dimethylphenoxy)ethyl)-4-methylpiperazine] | 0.3 to 1 µM |
| Cc1ccc(CC(=O)CN2CCN(C)CC2)c(Cc2ccccc2)c1 [compound 98, 1-(2-benzyl-4-methylphenyl)-3-(4-methylpiperazin-1-yl)propan-2-one] | 1 to 35 µM |
| Cc1ccc(OCCN2CCN(C)CC2)c(Cc2ccc(Cl)s2)c1 [compound 53, 1-(2-(2-((5-chlorothiophen-2-yl)methyl)-4-methylphenoxy)ethyl)-4-methylpiperazine] | 1 to 35 µM |
| Cc1cc(C)c(N(C)CCN2CCOCC2)c(Cc2ccccc2C#N)c1 [compound 126, 2-(3,5-dimethyl-2-(methyl(2-morpholinoethyl)amino)benzyl)benzonitrile] | < 0.05 µM |
| Cc1ccc(CC(O)CN2CCN(C)CC2)c(Cc2ccccc2)c1 (centres unmarked) [compound 97, 1-(2-benzyl-4-methylphenyl)-3-(4-methylpiperazin-1-yl)propan-2-ol] | 0.3 to 1 µM |
| Cc1cc(C)c(OCCN2CCOCC2)c(Cc2cc(F)ccc2F)c1 [compound 147, 4-(2-(2-(2,5-difluorobenzyl)-4,6-dimethylphenoxy)ethyl)morpholine] | 0.05 to 0.3 µM |
| CCN1CCN(CCOc2ccc(C)cc2Cc2ccccc2)CC1 [compound 76, 1-(2-(2-benzyl-4-methylphenoxy)ethyl)-4-ethylpiperazine hydrochloride] | 1 to 35 µM |
| Cc1cc(C)c(OCCN2CCN(C)CC2)c(Cc2ccccc2Br)c1 [compound 54, 1-(2-(2-(2-bromobenzyl)-4,6-dimethylphenoxy)ethyl)-4-methylpiperazine] | 0.3 to 1 µM |
| Cc1ccc(OCCN2CCNCC2)c(Cc2ccccc2)c1 [compound 88, 1-(2-(2-benzyl-4-methylphenoxy)ethyl)piperazine] | 1 to 35 µM |
| Cc1ccc(N(C)CCN2CCOCC2)c(Cc2ccccc2)c1 [compound 138, 2-benzyl-N,4-dimethyl-N-(2-morpholinoethyl)aniline] | 0.05 to 0.3 µM |
| Cc1ccc(C)c(OCCN2CCN(C)CC2)c1Cc1ccccc1 [compound 66, 1-(2-(2-benzyl-3,6-dimethylphenoxy)ethyl)-4-methylpiperazine] | 1 to 35 µM |
| Cc1ccc(O)c(Cc2cc(C)ccc2OCCN2CCN(C)CC2)c1 [compound 163, 4-methyl-2-(5-methyl-2-(2-(4-methylpiperazin-1-yl)ethoxy)benzyl)phenol] | 1 to 35 µM |
| Cc1cc(C)c(OCCN2CCN(C)CC2)c(Cc2ccccc2C(F)(F)F)c1 [compound 62, 1-(2-(2,4-dimethyl-6-(2-(trifluoromethyl)benzyl)phenoxy)ethyl)-4-methylpiperazine] | 0.3 to 1 µM |
| Cc1ccc(OCCN2CCN(C)CC2)c(C(=O)c2ccccc2)c1 [compound 42, (5-methyl-2-(2-(4-methylpiperazin-1-yl)ethoxy)phenyl)(phenyl)methanone] | 1 to 35 µM |
| Cc1ccc(OCCN2CCN(C)CC2)c(CC(C)C)c1 [compound 94, 1-(2-(2-isobutyl-4-methylphenoxy)ethyl)-4-methylpiperazine] | 1 to 35 µM |

| SMILES | EC50 |
| --- | --- |
| Cc1cc(C)c(OCCN2CCOCC2)c(Cc2c(F)cccc2C#N)c1 [compound 120, 2-(3,5-dimethyl-2-(2-morpholinoethoxy)benzyl)-3-fluorobenzonitrile] | 0.05 to 0.3 µM |
| Cc1ccc(NCCN2CCN(C)CC2)c(Cc2ccccc2)c1 [compound 135, 2-benzyl-4-methyl-N-(2-(4-methylpiperazin-1-yl)ethyl)aniline] | 1 to 35 µM |
| CN1CCN(CCOc2ccccc2Cc2ccccc2)CC1 [compound 93, 1-(2-(2-benzylphenoxy)ethyl)-4-methylpiperazine hydrochloride] | 1 to 35 µM |
| Cc1cc(C)c(OCCCN2CCOCC2)c(Cc2ccccc2C#N)c1 [compound 124, 2-(3,5-dimethyl-2-(3-morpholinopropoxy)benzyl)benzonitrile] | 0.05 to 0.3 µM |
| Cc1ccc(OCCN2CCN(C)CC2)c(Cc2cccs2)c1 [compound 105, 1-methyl-4-(2-(4-methyl-2-(thiophen-2-ylmethyl)phenoxy)ethyl)piperazine hydrochloride] | 0.3 to 1 µM |
| Cc1ccc(CCN2CCN(C)CC2)c(Cc2ccccc2)c1 [compound 96, 1-(2-benzyl-4-methylphenethyl)-4-methylpiperazine] | 1 to 35 µM |
| Cc1ccc(CC(O)CN2CCOCC2)c(Oc2ccccc2C#N)c1 (centres unmarked) [compound 107, 2-(2-(2-hydroxy-3-morpholinopropyl)-5-methylphenoxy)benzonitrile] | 0.05 to 0.3 µM |
| Cc1cc(C)c(OCCN2CCN(C)CC2)c(Cc2ccccc2C#N)c1 [compound 117, 2-(3,5-dimethyl-2-(2-(4-methylpiperazin-1-yl)ethoxy)benzyl)benzonitrile] | 0.05 to 0.3 µM |
| Cc1cc(C)c(OCCN2CCN(C)CC2)c(Cc2ccccn2)c1 [compound 63, 1-(2-(2,4-dimethyl-6-(pyridin-2-ylmethyl)phenoxy)ethyl)-4-methylpiperazine] | 1 to 35 µM |
| Cc1cc(C)c(OCCN2CCOCC2)c(Cc2ccccc2CC#N)c1 [compound 108, 2-(2-(3,5-dimethyl-2-(2-morpholinoethoxy)benzyl)phenyl)acetonitrile] | 0.05 to 0.3 µM |
| COC(=O)c1ccc(OCCN2CCN(C)CC2)c(Cc2ccccc2)c1 [compound 165, methyl 3-benzyl-4-(2-(4-methylpiperazin-1-yl)ethoxy)benzoate] | 1 to 35 µM |
| CCN1CCN(CCOc2ccc(Cl)cc2Cc2ccccc2)CC1 [compound 72, 1-(2-(2-benzyl-4-chlorophenoxy)ethyl)-4-ethylpiperazine hydrochloride] | 1 to 35 µM |
| Cc1ccc(OC(C)CN2CCN(C)CC2)c(Cc2ccccc2)c1 (centres unmarked) [compound 91, 1-(2-(2-benzyl-4-methylphenoxy)propyl)-4-methylpiperazine hydrochloride] | 0.3 to 1 µM |
| CC1CCC(OCCN2CCN(C)CC2)C(Cc2ccccc2)C1 (centres unmarked) [compound 52, 1-(2-((2-benzyl-4-methylcyclohexyl)oxy)ethyl)-4-methylpiperazine dihydrochloride] | 1 to 35 µM |
| CCc1cc(C)cc(Cc2ccccc2F)c1OCCN1CCOCC1 [compound 161, 4-(2-(2-ethyl-6-(2-fluorobenzyl)-4-methylphenoxy)ethyl)morpholine] | 0.05 to 0.3 µM |
| Cc1cc(C)c(OC(C)CN2CCOCC2)c(Cc2c(F)cccc2F)c1 (centres unmarked) [compound 150, 4-(2-(2-(2,6-difluorobenzyl)-4,6-dimethylphenoxy)propyl)morpholine] | 0.3 to 1 µM |
| COc1cc(C(C)(C)C)cc(Cc2ccccc2)c1OCCN1CCN(C)CC1 [compound 69, 1-(2-(2-benzyl-4-(tert-butyl)-6-methoxyphenoxy)ethyl)-4-methylpiperazine] | 1 to 35 µM |
